This is an account of results in patent US8216550B2, “Luciferins” (University of Massachusetts, priority 2007, dated 2012).

The test system of test [1] is Firefly luciferase. The note with it: amino-luciferin as substrate, literature value; cited from earlier work.
Test [2] deals with Firefly luciferase. The test can be described thus: Luciferase assay: emission spectrum of purified luciferase with luciferin substrates. The note with it: substrate of purified firefly luciferase, pH 7.8, Spex Fluoromax-3.

amino-luciferin [reference compound]: the “maximal emission reported by White et al., JACS (1966) 88: 2015” value in the test on Firefly luciferase [1] is on record as 605 nm. This compound showed a maximal emission in the test on Firefly luciferase [2] of 593 nm.

The compound `CC(C)Nc1ccc2nc(C3=N[C@@H](C(=O)O)CS3)sc2c1` [isopropylamino, D-2-(6′-isopropylamino-2′-benzothiazolyl)-Δ^2-thiazoline-4-carboxylic acid] returned a maximal emission in the test on Firefly luciferase [2] of 607 nm.

Consider `CCNc1ccc2nc(C3=N[C@@H](C(=O)O)CS3)sc2c1` [ethylamino, D-2-(6′-ethylamino-2′-benzothiazolyl)-Δ^2-thiazoline-4-carboxylic acid], for which the maximal emission in the test with Firefly luciferase [2] came out at 607 nm.

As to `O=C(O)[C@H]1CSC(c2nc3ccc(O)cc3s2)=N1` [D-luciferin, reference compound], in the test on Firefly luciferase [2], the maximal emission is 555 nm.

In the case of `CCCCNc1ccc2nc(C3=N[C@@H](C(=O)O)CS3)sc2c1` [n-butylamino, D-2-(6′-butylamino-2′-benzothiazolyl)-Δ^2-thiazoline-4-carboxylic acid], the maximal emission in the test on Firefly luciferase [2] was 607 nm.

Consider `CN(C)c1ccc2nc(C3=N[C@@H](C(=O)O)CS3)sc2c1` [dimethylamino-luciferin (1a), D-2-(6′-dimethylamino-2′-benzothiazolyl)-Δ^2-thiazoline-4-carboxylic acid], for which the maximal emission in the test with Firefly luciferase [2] is given as 624 nm.
